Reference: US4837228A, “Antiinflammatory and antimicrobial compounds and compositions” (The University of Mississippi, priority 1982, dated 1989)
Values after ≈ are worked out from the molar mass of the structure shown. Values joined by “and” are separate entries in the source; they are usually repeats but may differ in a detail not shown here. Identical values can stand only once. Like-named read-outs stand apart in the source and are kept apart here.

What was measured:
Assay type in all cases: cell-based
Saccharomyces cerevisiae [1] = test: agar well diffusion assay, S. cerevisiae; conditions: from edge of agar well
Method: (§1) Both qualitative and quantitative screens were performed. Qualitative screening was accomplished using the agar well diffusion assay technque while quantitative screening was accomplished by the two-fold (broth) serial dilution method to determine the minimum inhibitory concentration (MIC). Innoculation was accomplished with one loop-full of a 1:10 dilution of the 24-hour-old broth culture, (fungal cultures and M.smegmatis more often required 48 to 72 hours of incubation) of the test organisms in sterile water. Streptomycin sulfate was used as a positive control for antibacterial activity while amphitericin B was used as an antifungal positive control. Organisms utilized in the screens included gram-positive, gram-negative, and acid-fast bacteria as well as different types of fungi. […] An intermediate type activity is seen where R is hydrogen. However, where R is lengthened up to C15 a decrease in activity was noted. Total saturation of the two double bonds in the compounds having a methyl side chain lead, in most cases, to an increase in both antifungal and antibacterial activity.

[2] = tested on: Trichophyton mentagrophytes; test: agar well diffusion assay, T. mentagrophytes; conditions: for width of inhibition zone: from edge of agar well; for agar well diffusion result in words: one entry across 48 hr and 72 hr
Method: as §1

[3] = tested on: Trichophyton mentagrophytes; test: MIC, two-fold (broth) serial dilution, T. mentagrophytes
Method: as §1

Aspergillus niger = test: agar well diffusion assay, A. niger; conditions: from edge of agar well
Method: as §1

Candida albicans [4] = test: agar well diffusion assay, C. albicans; conditions: from edge of agar well
Method: as §1

Candida albicans [5] = test: MIC, two-fold (broth) serial dilution, C. albicans
Method: as §1

[6] = tested on: erythrocyte (heat-induced hemolysis); test: erythrocyte membrane stabilization assay (heat-induced erythrocyte hemolysis); conditions: Erythrocyte, 1 × 10^-4 M
Method: The published procedure (Proc. Soc. Exp. Biol. Med. 1967; 125; 837-842 Brow et al) for in vitro assay for antiinflammatory agents based on stabilization of erythrocytes was used. All compounds were prepared for administration by dissolving in physiologic saline or suspending in 2% ethanol in saline and the pH adjusted to 7.4 The concentrations tested in one series are given in Table 8. Aspirin (ASA) and phenylbutazone were used as positive controls for comparison of activity. Tests using this procedure were successfully and repeatedly using either 40% or 20% RBC suspensions.

Bacillus subtilis [7] = test: agar well diffusion assay, B. subtilis; conditions: from edge of agar well
Method: as §1

Pseudomonas aeruginosa = test: agar well diffusion assay, Ps. aeruginosa; conditions: from edge of agar well
Method: as §1

Escherichia coli = test: agar well diffusion assay, E. coli; conditions: from edge of agar well
Method: as §1

Staphylococcus aureus [8] = test: MIC, two-fold (broth) serial dilution, S. aureus; conditions: Staphylococcus aureus, read-out: MIC
Method: as §1

Mycobacterium smegmatis [9] = test: agar well diffusion assay, M. smegmatis; conditions: from edge of agar well
Method: as §1

Mycobacterium smegmatis [10] = test: MIC, two-fold (broth) serial dilution, M. smegmatis
Method: as §1

Staphylococcus aureus [11] = test: agar well diffusion assay, S. aureus; conditions: from edge of agar well
Method: as §1

Bacillus subtilis [12] = test: MIC, two-fold (broth) serial dilution, B. subtilis; conditions: Bacillus subtilis, read-out: MIC
Method: as §1

Saccharomyces cerevisiae [13] = test: MIC, two-fold (broth) serial dilution, S. cerevisiae
Method: as §1

[14] = Trichophyton mentagrophytes, 72 h, read-out: MIC
[15] = 48 hr, listed as Iso CBC (VIII)
[16] = 72 hr, listed as Iso CBC (VIII)
[17] = Trichophyton mentagrophytes, 48 h, read-out: MIC
[18] = Mycolicibacterium smegmatis, 24 h, read-out: MIC
[19] = Mycolicibacterium smegmatis, 48 h, read-out: MIC

SMILES | width of inhibition zone (Saccharomyces cerevisiae [1]; 48 hr) [mm] | width of inhibition zone (Saccharomyces cerevisiae [1]; 72 hr) | width of inhibition zone ([2]; 48 hr) [mm] | width of inhibition zone ([2]; 72 hr) [mm] | agar well diffusion result in words [2] | MIC ([3]; 48 hr) [µg/mL] | MIC ([3]; 72 hr) | MIC [3, 14] [µg/mL] | width of inhibition zone (Aspergillus niger; 48 hr) | width of inhibition zone (Candida albicans [4]; 48 hr) | MIC (Candida albicans [5]; 72 hr) [µg/mL] | width of inhibition zone (Bacillus subtilis [7]; 24 hr) [mm] | width of inhibition zone (Bacillus subtilis [7]; 48 hr) [mm] | width of inhibition zone (Pseudomonas aeruginosa; 24 hr) [mm] | width of inhibition zone (Escherichia coli; 24 hr) [mm] | width of inhibition zone (Escherichia coli; 48 hr) [mm] | MIC (Staphylococcus aureus [8]; 24 h) [µg/mL] | MIC (Staphylococcus aureus [8]; 48 h) [µg/mL] | MIC [3, 17] [µg/mL] | width of inhibition zone (Mycobacterium smegmatis [9]; 24 hr) [mm] | other results
C[C@@H]1[C@H](O)[C@@H](C)/C=C/C=C/C=C/C=C/C=C/C=C/C=C/[C@H](O[C@@H]2O[C@H](C)[C@@H](O)[C@H](N)[C@@H]2O)C[C@@H]2O[C@](O)(C[C@@H](O)C[C@@H](O)[C@H](O)CC[C@@H](O)C[C@@H](O)CC(=O)O[C@H]1C)C[C@H](O)[C@H]2C(=O)O [Amphotericin B, reference compound] | 7. | 8. mm and 5. mm | 4. | 4. | No growth | 25.0 (≈ 27.1 µM) | 25.0 µg/mL and 50 µg/mL | 25 (≈ 27.1 µM) | 4. mm and 2. mm | 7. mm and 5. mm | 25 (≈ 27.1 µM) |  |  |  |  |  |  |  |  |  | 
CC(C)=CCCC1(C)C=Cc2ccc(O)cc2O1 (centres unmarked) [Iso CBC (VII), 2-methyl-2(4'-methyl-pent-3'-enyl)-7-hydroxychromene] | 2. | 2. mm |  |  | No growth |  |  | 6.25 (≈ 25.6 µM) | 1. mm | 3. mm |  | 10. | 7. | 4. | 2. | 2. | 12.5 (≈ 51.2 µM) | 12.5 (≈ 51.2 µM) | 6.25 (≈ 25.6 µM) | 6. | inhibition at 100 µM ([6]; read-out: inhibition of heat-induced erythrocyte hemolysis, Table 8): 43%; width of inhibition zone (Saccharomyces cerevisiae [1]; [15]): 4. mm; width of inhibition zone (Saccharomyces cerevisiae [1]; [16]): 4. mm; width of inhibition zone (Pseudomonas aeruginosa; 48 hr): 4. mm; width of inhibition zone (Mycobacterium smegmatis [9]; 24 hr, listed as Iso CBC (VIII)): 5. mm; width of inhibition zone (Mycobacterium smegmatis [9]; 48 hr): 4. mm; width of inhibition zone (Mycobacterium smegmatis [9]; [15]): 5. mm; width of inhibition zone (Candida albicans [4]; [15]): 4. mm; width of inhibition zone (Candida albicans [4]; 72 hr): 2. mm; width of inhibition zone (Candida albicans [4]; [16]): 5. mm; MIC (Mycobacterium smegmatis [10]; 24 hr): 12.5 µg/mL (≈ 51.2 µM); MIC (Mycobacterium smegmatis [10]; 48 hr): 12.5 µg/mL (≈ 51.2 µM); MIC (Mycobacterium smegmatis [10]; [18]): 25 µg/mL (≈ 102 µM); MIC (Mycobacterium smegmatis [10]; [19]): 25 µg/mL (≈ 102 µM); MIC (Candida albicans [5]; [15]): 12.5 µg/mL (≈ 51.2 µM); MIC (Candida albicans [5]; [16]): 25 µg/mL (≈ 102 µM); width of inhibition zone (Staphylococcus aureus [11]; 24 hr): 10. mm; width of inhibition zone (Staphylococcus aureus [11]; 48 hr): 10. mm
CC(C)=CCCC1(C)C=Cc2c(O)cccc2O1 (centres unmarked) [CBC (VI), 2-methyl-2-(4'-methyl-pent-3'-enyl)-5-hydroxychromene] | 10. | 8. mm | 20. | 19. |  | 25.0 (≈ 102 µM) | 25.0 µg/mL (≈ 102 µM) | 25 (≈ 102 µM) | 9. mm | 7. mm | 50.0 (≈ 205 µM) | 10. | 10. | 3. | 3. | 2. | 12.5 (≈ 51.2 µM) | 12.5 (≈ 51.2 µM) | 25 (≈ 102 µM) | 20. | inhibition at 100 µM ([6]; Table 8, read-out: inhibition of heat-induced erythrocyte hemolysis): 69%; MIC (Bacillus subtilis [12]; 24 h): 6.25 µg/mL (≈ 25.6 µM); MIC (Bacillus subtilis [12]; 48 h): 12.5 µg/mL (≈ 51.2 µM); width of inhibition zone (Aspergillus niger; 72 hr): 5. mm; width of inhibition zone (Mycobacterium smegmatis [9]; 48 hr): 18. mm; width of inhibition zone (Candida albicans [4]; 72 hr): 5. mm; MIC (Saccharomyces cerevisiae [13]; 48 hr): 25.0 µg/mL (≈ 102 µM); MIC (Saccharomyces cerevisiae [13]; 72 hr): 25.0 µg/mL (≈ 102 µM); MIC (Saccharomyces cerevisiae [13]; Saccharomyces cerevisiae, 48 h, read-out: MIC): 25 µg/mL (≈ 102 µM); MIC (Saccharomyces cerevisiae [13]; Saccharomyces cerevisiae, 72 h, read-out: MIC): 25 µg/mL (≈ 102 µM); MIC (Mycobacterium smegmatis [10]; [18]): 12.5 µg/mL (≈ 51.2 µM); MIC (Mycobacterium smegmatis [10]; [19]): 12.5 µg/mL (≈ 51.2 µM); MIC (Candida albicans [5]; 48 hr): 50.0 µg/mL (≈ 205 µM); MIC (Candida albicans [5]; Candida albicans, 48 h, read-out: MIC): 50 µg/mL (≈ 205 µM); MIC (Candida albicans [5]; Candida albicans, 72 h, read-out: MIC): 50 µg/mL (≈ 205 µM); width of inhibition zone (Staphylococcus aureus [11]; 24 hr): 15. mm; width of inhibition zone (Staphylococcus aureus [11]; 48 hr): 15. mm
